From PubChem BioAssay AID248 (DTP/NCI, 2004)
“And” between values parts separate entries of the source, which are not always exact repeats. Equal entries are not always repeated. Inconclusive results and toxic doses are left out. Rule as the data show it: active = T/C of 150% or more; inactive = T/C below 125%. Numbered stars: 1 amine (or outer) side, 2 acyl side, 3 side chain; on linkers, the order of the positions; unused ones are H or OH. Bridge positions count the residues as written; N and C are the ends. Square brackets hold non-standard residues; d marks the D form. Peptide text beside a SMILES is read from it. * marks the point of attachment. X3 = CC(C)C(C)C(C(=O)[*:2])N(C)[*:1]; Picolinoyl(3-OH) = O=C(c1ncccc1O)*; NMePhg = CN[CH](C(=O)O)c1ccccc1; Hyp = O=C(O)[CH]1C[CH](O)CN1; Sar = CNCC(=O)O

Tested on: L1210 leukemia ip in BDF1 mice, survival T/C
Test: NCI In Vivo Anticancer Drug Screen. Data for tumor model L1210 Leukemia (intraperitoneal) in B6D2F1 (BDF1) mice
Details: endpoint: mean survival time, higher = longer survival
Method in brief: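 In this screen, tumor-bearing mice given compound are compared to those given vehicle, and their survival values are reported as a treated-to-control quotient.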

[1] = dose: 100.0 mg/kg/injection, schedule: Q01DX009 (ip), vehicle: saline with Tween-80
[2] = dose: 200.0 mg/kg/injection, schedule: Q01DX009 (ip), vehicle: saline with Tween-80
[3] = dose: 400.0 mg/kg/injection, schedule: Q01DX009 (ip), vehicle: saline with Tween-80
[4] = dose: 100.0 mg/kg/injection, schedule: Q01DX009 (ip), vehicle: saline
[5] = dose: 200.0 mg/kg/injection, schedule: Q01DX009 (ip), vehicle: saline
[6] = dose: 100.0 mg/kg/injection, schedule: Q04DX002 (ip), vehicle: Klucel (hydroxypropylcellulose) (HPC)
[7] = dose: 200.0 mg/kg/injection, schedule: Q04DX002 (ip), vehicle: Klucel (hydroxypropylcellulose) (HPC)
[8] = dose: 100.0 mg/kg/injection, schedule: Q01DX001 (ip), vehicle: saline
[9] = dose: 100.0 mg/kg/injection, schedule: Q04DX003 (ip), vehicle: saline with Tween-80
[10] = dose: 200.0 mg/kg/injection, schedule: Q01DX001 (ip), vehicle: saline
[11] = dose: 200.0 mg/kg/injection, schedule: Q04DX003 (ip), vehicle: saline with Tween-80
[12] = dose: 100.0 mg/kg/injection, schedule: Q04DX003 (ip), vehicle: Klucel (hydroxypropylcellulose) (HPC)
[13] = dose: 200.0 mg/kg/injection, schedule: Q04DX003 (ip), vehicle: Klucel (hydroxypropylcellulose) (HPC)
[14] = dose: 400.0 mg/kg/injection, schedule: Q04DX003 (ip), vehicle: saline with Tween-80

Measured: T/C

NCc1ccc(NC(=O)c2ccc(C(=O)Nc3ccc(CN)cc3)cc2)cc1
inactive: dose: 15.0 mg/kg/injection, schedule: Q01DX Z (ip), vehicle: water 97 % of control | dose: 20.0 mg/kg/injection, schedule: Q01DX Z (ip), vehicle: water 102 % of control | dose: 30.0 mg/kg/injection, schedule: Q01DX Z (ip), vehicle: water 96 % of control | dose: 40.0 mg/kg/injection, schedule: Q01DX Z (ip), vehicle: water 102 % of control

CC(C)CC1NC(=O)C(NC(=O)c2ncccc2O)C(C)OC(=O)C(c2ccccc2)N(C)C(=O)C(C)NC(=O)C(C(C)C(C)C)N(C)C(=O)CN(C)C(=O)C2CC(O)CN2C1=O (stereo unspecified) ({Picolinoyl(3-OH)}-TL[Hyp][Sar][X3]A[NMePhg]; ester 1-C; configuration not given here)
inactive: dose: 5.3 mg/kg/injection, schedule: Q01DX Z (ip), vehicle: saline 100 % of control | dose: 8.0 mg/kg/injection, schedule: Q01DX Z (ip), vehicle: saline 100 % of control | dose: 12.0 mg/kg/injection, schedule: Q01DX Z (ip), vehicle: saline 103 % of control | dose: 18.0 mg/kg/injection, schedule: Q01DX Z (ip), vehicle: saline 103 % of control and 109 % of control | dose: 36.0 mg/kg/injection, schedule: Q01DX Z (ip), vehicle: saline 97 % of control | dose: 72.0 mg/kg/injection, schedule: Q01DX Z (ip), vehicle: saline 103 % of control | dose: 144.0 mg/kg/injection, schedule: Q01DX Z (ip), vehicle: saline 106 % of control

O=S(Sc1ccccc1)c1ccccc1 (stereo unspecified)
inactive: dose: 0.94 mg/kg/injection, schedule: Q01DX Z (ip), vehicle: saline 104 % of control | dose: 3.75 mg/kg/injection, schedule: Q01DX Z (ip), vehicle: saline 96 % of control

CC(=O)N(C(C)=O)c1ccccc1
inactive: [1] 105 % of control | [2] 107 % of control | [3] 115 % of control

COc1cc(Cl)ccc1NC(=O)Oc1ccc(F)cc1
inactive: [4] 123 % of control | [5] 101 % of control | dose: 400.0 mg/kg/injection, schedule: Q01DX009 (ip), vehicle: saline 115 % of control

CCCCCC(Oc1ccc(Cl)cc1Cl)C(=O)O (stereo unspecified)
inactive: [6] 100 % of control | [7] 97 % of control

O=S(=O)(Nc1ccc(CCc2ccc(NS(=O)(=O)c3ccccc3)cc2)cc1)c1ccccc1
inactive: [1] 95 % of control | [2] 98 % of control | [3] 98 % of control

CC1=Nc2ccccc2N=C(C)C1
inactive: [8] 107 % of control | [9] 93 % of control | [10] 102 % of control | [11] 96 % of control

O=c1[nH]c2ccccc2c2ccc([N+](=O)[O-])cc12
inactive: dose: 100.0 mg/kg/injection, schedule: Q01DX001 (ip), vehicle: carboxymethylcellulose (CMC) 95 % of control | dose: 200.0 mg/kg/injection, schedule: Q01DX001 (ip), vehicle: carboxymethylcellulose (CMC) 106 % of control | dose: 400.0 mg/kg/injection, schedule: Q01DX001 (ip), vehicle: carboxymethylcellulose (CMC) 93 % of control

OC1(C#[C][Hg][C]#CC2(O)CCCCC2)CCCCC1
inactive: [12] 98 % of control | [13] 100 % of control

OC1CCN(C2(c3ccccc3)CCCCC2)CC1
inactive: [6] 104 % of control | [7] 86 % of control

O=NN(CC(=O)O)c1ccc2ccccc2c1
inactive: dose: 100.0 mg/kg/injection, schedule: Q04DX002 (ip), vehicle: saline with Tween-80 90 % of control | dose: 200.0 mg/kg/injection, schedule: Q04DX002 (ip), vehicle: saline with Tween-80 90 % of control | dose: 400.0 mg/kg/injection, schedule: Q04DX002 (ip), vehicle: saline with Tween-80 93 % of control

O=[N+]([O-])c1ccc(NN=C(C2CC2)C2CC2)c([N+](=O)[O-])c1
inactive: dose: 100.0 mg/kg/injection, schedule: Q01DX001 (ip), vehicle: other 95 % of control | dose: 200.0 mg/kg/injection, schedule: Q01DX001 (ip), vehicle: other 98 % of control | dose: 400.0 mg/kg/injection, schedule: Q01DX001 (ip), vehicle: other 88 % of control

CCCCNC(c1ccccc1)C(Cl)c1ccccc1 (stereo unspecified)
inactive: [12] 97 % of control | [13] 97 % of control

COc1cc(N2CCOCC2)ccc1[N+](=O)[O-]
inactive: dose: 50.0 mg/kg/injection, schedule: Q01DX009 (ip), vehicle: saline 105 % of control | [4] 103 % of control | dose: 100.0 mg/kg/injection, schedule: Q04DX003 (ip), vehicle: saline 102 % of control | [5] 105 % of control | dose: 200.0 mg/kg/injection, schedule: Q04DX003 (ip), vehicle: saline 103 % of control

CC(=O)CC(=O)Nc1cccc(NC(=O)CC(C)=O)c1
inactive: dose: 100.0 mg/kg/injection, schedule: Q01DX001 (ip), vehicle: Klucel (hydroxypropylcellulose) (HPC) 99 % of control | dose: 200.0 mg/kg/injection, schedule: Q01DX001 (ip), vehicle: Klucel (hydroxypropylcellulose) (HPC) 94 % of control | dose: 400.0 mg/kg/injection, schedule: Q01DX001 (ip), vehicle: Klucel (hydroxypropylcellulose) (HPC) 101 % of control

O=C(/C=C/c1ccccc1)CC(=O)c1ccccc1
inactive: dose: 100.0 mg/kg/injection, schedule: Q04DX003 (ip), vehicle: DMSO 102 % of control | dose: 200.0 mg/kg/injection, schedule: Q04DX003 (ip), vehicle: DMSO 97 % of control | dose: 400.0 mg/kg/injection, schedule: Q04DX003 (ip), vehicle: DMSO 96 % of control

COc1cc(Br)c(/C=C/C(=O)O)cc1OC
inactive: [9] 95 % of control | [11] 93 % of control | [14] 92 % of control

CCOC(=O)c1c(-c2ccc([N+](=O)[O-])cc2)cn(-c2ccc(OC)cc2)c1C
inactive: [6] 91 % of control | [7] 87 % of control | dose: 400.0 mg/kg/injection, schedule: Q04DX002 (ip), vehicle: Klucel (hydroxypropylcellulose) (HPC) 94 % of control

OC1CSC1
inactive: dose: 50.0 mg/kg/injection, schedule: Q01DX001 (ip), vehicle: saline 89 % of control | [8] 96 % of control | [1] 96 % of control | [9] 98 % of control | [10] 100 % of control | [2] 98 % of control | [11] 98 % of control | [3] 96 % of control | [14] 102 % of control

Cc1cc2c(cc1C)/C(=N\O)CCCC2
inactive: [9] 110 % of control | [11] 92 % of control | [14] 94 % of control

CC(C)OC(=O)COc1ccc(Cl)cc1
inactive: dose: 100.0 mg/kg/injection, schedule: Q01DX009 (ip), vehicle: carboxymethylcellulose (CMC) 101 % of control and 102 % of control | dose: 100.0 mg/kg/injection, schedule: Q04DX002 (ip), vehicle: carboxymethylcellulose (CMC) 101 % of control and 105 % of control | dose: 100.0 mg/kg/injection, schedule: Q04DX003 (ip), vehicle: carboxymethylcellulose (CMC) 102 % of control | dose: 200.0 mg/kg/injection, schedule: Q01DX009 (ip), vehicle: carboxymethylcellulose (CMC) 101 % of control and 91 % of control | dose: 200.0 mg/kg/injection, schedule: Q04DX002 (ip), vehicle: carboxymethylcellulose (CMC) 102 % of control and 106 % of control | dose: 200.0 mg/kg/injection, schedule: Q04DX003 (ip), vehicle: carboxymethylcellulose (CMC) 104 % of control | dose: 400.0 mg/kg/injection, schedule: Q01DX009 (ip), vehicle: carboxymethylcellulose (CMC) 108 % of control and 88 % of control | dose: 400.0 mg/kg/injection, schedule: Q04DX002 (ip), vehicle: carboxymethylcellulose (CMC) 98 % of control and 108 % of control | dose: 400.0 mg/kg/injection, schedule: Q04DX003 (ip), vehicle: carboxymethylcellulose (CMC) 101 % of control
